Test results: ChEMBL document CHEMBL4373744, “Modifying the lipophilic part of phenylthiazole antibiotics to control their drug-likeness” (Eur J Med Chem, 2020)
Converted amounts (≈) assume the structure as drawn. The source made the active and inactive calls. No cut-off for these calls is given here.

Key:
[1] = test system: Enterococcus faecium; test: Antimicrobial activity against vancomycin-resistant Enterococcus faecium ATCC 700221 by broth liquid microdilution method; assay type: functional
[2] = test system: Staphylococcus aureus; test: Bactericidal activity against methicillin-resistant Staphylococcus aureus USA400 assessed as 3 log reduction in number of colony forming units at 5 times MIC incubated for 10 hrs by aliquots transfer to tryptic soy agar and grown for 18 to 20 hrs by Time-kill assay relative to control; assay type: functional; parameters: scale not given: the % may be the effect or the level left
[3] = test system: Staphylococcus aureus; test: microbe, parasite or virus in culture; settings: NRS119
Description: Antimicrobial activity against methicillin-resistant Staphylococcus aureus NRS119 by broth liquid microdilution method

[4] = test system: Staphylococcus epidermidis; test: Antimicrobial activity against methicillin-resistant Staphylococcus epidermidis NRS101 by broth liquid microdilution method; assay type: functional
[5] = test system: Staphylococcus aureus; test: Antibiofilm activity against methicillin-resistant Staphylococcus aureus USA300 at 2 times MIC incubated for 24 hrs by crystal violet staining based assay relative to control; assay type: functional
[6] = test system: Caco-2; test: Cytotoxicity against human Caco2 cells assessed as reduction in cell viability at 64 ug/ml by MTS assay relative to control
[7] = test system: Staphylococcus aureus; test: microbe, parasite or virus in culture; settings: NRS384
Description: Antimicrobial activity against methicillin-resistant Staphylococcus aureus NRS384 by broth liquid microdilution method

[8] = test system: Staphylococcus aureus; test: microbe, parasite or virus in culture; settings: NRS 386
Description: Antimicrobial activity against methicillin-resistant Staphylococcus aureus NRS 386 by broth liquid microdilution method

[9] = test system: Streptococcus pneumoniae; test: Antimicrobial activity against methicillin-resistant Streptococcus pneumoniae ATCC 700677 by broth liquid microdilution method; assay type: functional
[10] = test system: Staphylococcus aureus; test: Antibiofilm activity against methicillin-resistant Staphylococcus aureus USA300 incubated for 24 hrs by crystal violet staining based assay; assay type: functional, organism-based
[11] = test system: Staphylococcus aureus; test: microbe, parasite or virus in culture; settings: NRS 107
Description: Antimicrobial activity against methicillin-sensitive Staphylococcus aureus NRS 107 by broth liquid microdilution method

[12] = test system: Staphylococcus aureus; test: microbe, parasite or virus in culture; settings: NRS 385
Description: Antimicrobial activity against methicillin-resistant Staphylococcus aureus NRS 385 by broth liquid microdilution method

[13] = test system: Staphylococcus aureus; test: microbe, parasite or virus in culture; settings: NRS123
Description: Antimicrobial activity against methicillin-resistant Staphylococcus aureus NRS123 by broth liquid microdilution method

[14] = test system: Staphylococcus aureus; test: Bactericidal activity against methicillin-resistant Staphylococcus aureus USA400 assessed as reduction in number of colony forming units at 5 times MIC incubated for 24 hrs by aliquots transfer to tryptic soy agar and grown for 18 to 20 hrs by Time-kill assay; assay type: functional, organism-based
[15] = test system: Escherichia coli; test: Antimicrobial activity against Escherichia coli JW55031 harboring deltatolC mutant by broth liquid microdilution method; assay type: functional
[16] = test system: Staphylococcus aureus; test: microbe, parasite or virus in culture; settings: ATCC 6538
Description: Antimicrobial activity against methicillin-sensitive Staphylococcus aureus ATCC 6538 by broth liquid microdilution method

[17] = test system: Escherichia coli; test: Antimicrobial activity against Escherichia coli BW25113 by broth liquid microdilution method; assay type: functional
[18] = test system: Streptococcus pneumoniae; test: Antimicrobial activity against cephalosporin-resistant Streptococcus pneumoniae ATCC 51916 by broth liquid microdilution method; assay type: functional
[19] = test system: Staphylococcus aureus; test: Antimicrobial activity against vancomycin-resistant Staphylococcus aureus 10 by broth liquid microdilution method; assay type: functional
[20] = test system: Staphylococcus aureus; test: Antibiofilm activity against methicillin-resistant Staphylococcus aureus USA300 at 4 times MIC incubated for 24 hrs by crystal violet staining based assay relative to control; assay type: functional
[21] = test system: Listeria monocytogenes; test: Antimicrobial activity against Listeria monocytogenes ATCC 19111 by broth liquid microdilution method; assay type: functional
[22] = test system: Staphylococcus aureus; test: Antimicrobial activity against vancomycin-resistant Staphylococcus aureus 12 by broth liquid microdilution method; assay type: functional
[23] = test system: Enterococcus faecalis; test: microbe, parasite or virus in culture; settings: ATCC 51299
[24] = test system: Staphylococcus aureus; test: Bactericidal activity against methicillin-resistant Staphylococcus aureus USA400 assessed as reduction in number of colony forming units at 5 times MIC incubated for 10 hrs by aliquots transfer to tryptic soy agar and grown for 18 to 20 hrs by Time-kill assay relative to control; assay type: functional; parameters: scale not given: the % may be the effect or the level left
[25] = test system: Staphylococcus aureus; test: Antimicrobial activity against methicillin-resistant Staphylococcus aureus USA400 infected in mouse J774 cells assessed as reduction in […] bacterial count at 4 times MIC incubated for 24 hrs relative to control; assay type: functional; parameters: scale not given: the % may be the effect or the level left
[26] = test system: J774; test: Cytotoxicity against mouse J774 cells assessed as reduction in cell viability at 4 to 8 ug/ml incubated for 24 hrs by MTS assay; assay type: cell-based; settings: j774, 24 h
[27] = test system: Staphylococcus aureus; test: Antimicrobial activity against methicillin-resistant Staphylococcus aureus USA400 infected in mouse J774 cells assessed as reduction in […] bacterial count at 2 times MIC incubated for 24 hrs relative to control; assay type: functional; parameters: scale not given: the % may be the effect or the level left

Compound | MBC [1] [µg/mL] | MIC [1] [µg/mL] | MBC [3] [µg/mL] | MIC [3] [µg/mL] | MBC [4] [µg/mL] | MIC [4] [µg/mL] | Activity [5] [%] | MBC [7] [µg/mL] | MIC [7] [µg/mL] | MBC [8] [µg/mL] | MIC [8] [µg/mL] | MBC [9] [µg/mL] | MIC [9] [µg/mL] | Activity [10] | MBC [11] [µg/mL] | MIC [11] [µg/mL] | MBC [12] [µg/mL] | MIC [12] [µg/mL] | MBC [13] [µg/mL] | MIC [13] [µg/mL] | also measured
C/C(=N\NC(=N)N)c1sc(-c2ccc(C#CCCn3ccnc3)cc2)nc1C | 16 (≈ 40.9 µM) | 4 (≈ 10.2 µM) | 32 (≈ 81.7 µM) | 8 (≈ 20.4 µM) | 16 (≈ 40.9 µM) | 4 (≈ 10.2 µM) | 65 | 16 (≈ 40.9 µM) | 4 (≈ 10.2 µM) | 16 (≈ 40.9 µM) | 4 (≈ 10.2 µM) | 16 (≈ 40.9 µM) | 4 (≈ 10.2 µM) | Dose-dependent effect | 8 (≈ 20.4 µM) | 4 (≈ 10.2 µM) | 16 (≈ 40.9 µM) | 4 (≈ 10.2 µM) | 8 (≈ 20.4 µM) | 4 (≈ 10.2 µM) | Activity [2]: 99.9%; Activity [6]: 70%; Activity [14]: Active; MIC [15]: 16 µg/mL (≈ 40.9 µM); MBC [16]: 16 µg/mL (≈ 40.9 µM); MIC [16]: 4 µg/mL (≈ 10.2 µM); MIC [17]: > 64 µg/mL; MBC [18]: 16 µg/mL (≈ 40.9 µM); MIC [18]: 8 µg/mL (≈ 20.4 µM); MBC [19]: 8 µg/mL (≈ 20.4 µM); MIC [19]: 4 µg/mL (≈ 10.2 µM); Activity [20]: 81%; MBC [21]: 32 µg/mL (≈ 81.7 µM); MIC [21]: 8 µg/mL (≈ 20.4 µM); MBC [22]: 16 µg/mL (≈ 40.9 µM); MIC [22]: 4 µg/mL (≈ 10.2 µM); MBC [23]: 32 µg/mL (≈ 81.7 µM); MIC [23]: 8 µg/mL (≈ 20.4 µM)
C/C(=N\NC(=N)N)c1sc(-c2ccc(C#CCCN3CC(O)C3)cc2)nc1C | 16 (≈ 40.4 µM) | 4 (≈ 10.1 µM) | 8 (≈ 20.2 µM) | 4 (≈ 10.1 µM) | 16 (≈ 40.4 µM) | 2 (≈ 5.04 µM) | 31 | 4 (≈ 10.1 µM) | 4 (≈ 10.1 µM) | 8 (≈ 20.2 µM) | 4 (≈ 10.1 µM) | 16 (≈ 40.4 µM) | 4 (≈ 10.1 µM) | Dose-dependent effect | 4 (≈ 10.1 µM) | 4 (≈ 10.1 µM) | 4 (≈ 10.1 µM) | 4 (≈ 10.1 µM) | 8 (≈ 20.2 µM) | 4 (≈ 10.1 µM) | Activity [24]: 100%; Activity [25]: 99%; Activity [26]: Non-Toxic; MBC [16]: 4 µg/mL (≈ 10.1 µM); MIC [16]: 4 µg/mL (≈ 10.1 µM); MBC [18]: 16 µg/mL (≈ 40.4 µM); MIC [18]: 4 µg/mL (≈ 10.1 µM); Activity [27]: 55%; MBC [19]: 8 µg/mL (≈ 20.2 µM); MIC [19]: 4 µg/mL (≈ 10.1 µM); Activity [20]: 72%; MBC [21]: 32 µg/mL (≈ 80.7 µM); MIC [21]: 4 µg/mL (≈ 10.1 µM); MBC [22]: 8 µg/mL (≈ 20.2 µM); MIC [22]: 4 µg/mL (≈ 10.1 µM); MBC [23]: 16 µg/mL (≈ 40.4 µM); MIC [23]: 8 µg/mL (≈ 20.2 µM)
